# Experimental data from PMC10425802 (Genes & Diseases, 2023).
# Assays:
# Experiment in all cases: mobility shift kinase assay
# Format in all cases: biochemical
# [1] = target: FGFR1 (Homo sapiens, UniProt P11362)
# [2] = target: FGFR3 (Homo sapiens, UniProt P22607)
# [3] = target: FGFR2 (Homo sapiens, UniProt P21802)
# Chain of FGFR2 (P21802 22-821): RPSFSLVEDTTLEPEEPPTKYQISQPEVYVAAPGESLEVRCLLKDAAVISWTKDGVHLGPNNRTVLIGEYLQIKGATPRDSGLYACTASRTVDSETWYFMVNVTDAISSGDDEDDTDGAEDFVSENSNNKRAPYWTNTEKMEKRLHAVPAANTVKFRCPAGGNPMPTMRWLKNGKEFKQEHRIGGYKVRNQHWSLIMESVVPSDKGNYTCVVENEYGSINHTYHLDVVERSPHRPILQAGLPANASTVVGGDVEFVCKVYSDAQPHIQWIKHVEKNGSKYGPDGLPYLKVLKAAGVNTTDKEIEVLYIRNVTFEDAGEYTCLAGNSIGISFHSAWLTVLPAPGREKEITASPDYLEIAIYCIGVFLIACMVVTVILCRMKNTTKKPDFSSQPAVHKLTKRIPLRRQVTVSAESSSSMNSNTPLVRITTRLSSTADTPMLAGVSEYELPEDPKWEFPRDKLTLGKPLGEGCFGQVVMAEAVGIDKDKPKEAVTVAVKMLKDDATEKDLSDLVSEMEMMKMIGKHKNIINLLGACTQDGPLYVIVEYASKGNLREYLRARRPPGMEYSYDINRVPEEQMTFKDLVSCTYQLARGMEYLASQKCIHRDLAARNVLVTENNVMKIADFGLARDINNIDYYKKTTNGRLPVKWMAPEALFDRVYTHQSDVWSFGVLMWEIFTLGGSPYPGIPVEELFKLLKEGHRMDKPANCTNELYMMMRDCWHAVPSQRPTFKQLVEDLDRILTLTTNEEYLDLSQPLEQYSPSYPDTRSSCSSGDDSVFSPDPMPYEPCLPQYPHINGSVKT
# Chain of FGFR3 (P22607 23-806): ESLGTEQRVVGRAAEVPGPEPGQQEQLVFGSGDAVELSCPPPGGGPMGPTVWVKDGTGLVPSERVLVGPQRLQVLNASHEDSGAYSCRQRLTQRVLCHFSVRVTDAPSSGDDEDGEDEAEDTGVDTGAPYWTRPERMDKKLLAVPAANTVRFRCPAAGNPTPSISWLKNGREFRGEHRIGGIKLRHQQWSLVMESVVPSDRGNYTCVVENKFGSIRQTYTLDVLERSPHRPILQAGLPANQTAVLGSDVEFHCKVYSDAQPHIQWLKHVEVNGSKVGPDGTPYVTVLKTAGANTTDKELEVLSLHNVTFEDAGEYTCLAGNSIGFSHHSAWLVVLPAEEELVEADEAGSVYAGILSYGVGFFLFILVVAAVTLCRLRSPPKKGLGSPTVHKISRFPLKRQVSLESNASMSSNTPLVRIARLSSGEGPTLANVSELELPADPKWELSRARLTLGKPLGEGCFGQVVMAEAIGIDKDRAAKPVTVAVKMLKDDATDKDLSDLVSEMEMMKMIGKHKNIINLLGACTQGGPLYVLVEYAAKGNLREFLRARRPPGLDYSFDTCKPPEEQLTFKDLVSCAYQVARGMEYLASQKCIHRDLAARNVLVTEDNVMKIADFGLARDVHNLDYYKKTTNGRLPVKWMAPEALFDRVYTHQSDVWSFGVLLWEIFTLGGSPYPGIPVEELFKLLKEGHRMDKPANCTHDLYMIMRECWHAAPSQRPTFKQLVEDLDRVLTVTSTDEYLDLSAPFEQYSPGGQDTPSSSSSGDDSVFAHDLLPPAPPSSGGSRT
# Chain of FGFR1 (P11362 22-822): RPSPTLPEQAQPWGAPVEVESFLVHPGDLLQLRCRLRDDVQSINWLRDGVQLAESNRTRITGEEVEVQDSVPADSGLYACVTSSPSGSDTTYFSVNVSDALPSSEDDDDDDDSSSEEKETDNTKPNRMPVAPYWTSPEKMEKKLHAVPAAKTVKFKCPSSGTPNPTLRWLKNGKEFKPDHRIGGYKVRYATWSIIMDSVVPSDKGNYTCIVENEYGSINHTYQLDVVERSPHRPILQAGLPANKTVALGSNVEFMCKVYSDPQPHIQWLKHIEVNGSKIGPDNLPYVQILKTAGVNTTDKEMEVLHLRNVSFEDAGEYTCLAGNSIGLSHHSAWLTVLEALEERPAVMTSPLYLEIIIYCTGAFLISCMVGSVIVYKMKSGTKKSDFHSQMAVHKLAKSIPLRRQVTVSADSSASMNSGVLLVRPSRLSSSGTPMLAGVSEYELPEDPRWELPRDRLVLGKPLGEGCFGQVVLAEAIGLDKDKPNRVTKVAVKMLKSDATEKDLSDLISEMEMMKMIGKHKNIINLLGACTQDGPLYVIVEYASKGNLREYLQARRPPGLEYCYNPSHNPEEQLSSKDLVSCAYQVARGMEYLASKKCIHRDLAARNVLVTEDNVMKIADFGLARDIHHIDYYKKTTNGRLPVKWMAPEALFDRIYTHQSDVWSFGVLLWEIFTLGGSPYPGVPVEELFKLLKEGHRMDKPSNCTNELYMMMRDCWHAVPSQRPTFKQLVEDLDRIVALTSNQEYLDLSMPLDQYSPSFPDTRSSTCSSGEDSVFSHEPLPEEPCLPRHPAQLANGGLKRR
substance,measurement,setting,value
CYY292,IC50,[1],0.028 µM
same,IC50,[2],0.078 µM
same,IC50,[3],0.028 µM
